In ChEMBL document CHEMBL1122521, “Nucleic acid related compounds. 47. Synthesis and biological activities of pyrimidine and purine "acyclic" nucleoside analogues” (J Med Chem, 1984):
Converted amounts (≈) assume the structure as drawn.

Assays:
Format in all cases: functional
[1] = Ratio of ID50 for dThd or dUrd incorporation to ID50 for HSV-1, HSV-2 or VV(whatever was lowest)
[2] = Inhibitory concentration required to reduce incorporation of 2-deoxyuridine (dUrd) into DNA of Primary Rabbit kidney (PRK) cell cultures; conditions: Oryctolagus cuniculus, read-out: ID50 (the source's name)
[3] = Inhibitory concentration required to reduce incorporation of 2-deoxythymidine (dThd) into DNA of Primary Rabbit kidney (PRK) cell cultures; conditions: Oryctolagus cuniculus, read-out: ID50 (the source's name)
[4] = test system: Human alphaherpesvirus 1; assay: Concentration required to reduce cytopathogenicity of Herpes simplex virus type 1 (strain KOS) by 50% in primary rabbit kidney (PRK) cells
[5] = test system: Human alphaherpesvirus 2; assay: Concentration required to reduce cytopathogenicity of Herpes simplex virus type 2 (strain G) by 50% in primary rabbit kidney (PRK) cells
[6] = test system: Vesicular stomatitis virus; assay: Concentration required to reduce cytopathogenicity of Vesicular stomatitis virus by 50% in primary rabbit kidney (PRK) cells
[7] = test system: L1210; assay: Inhibitory concentration required to reduce [3H-methyl]-dThd C incorporation into cellular DNA by 50% in Murine Leukemia L1210 cells; conditions: Mus musculus, read-out: ID50 (the source's name)
[8] = test system: L1210; assay: Inhibitory concentration required to reduce cell growth of Murine Leukemia L1210 cells; conditions: Mus musculus, read-out: ID50 (the source's name)
[9] = test system: L1210; assay: Inhibitory concentration required to reduce [3H1',2']dUrd incorporation into cellular DNA by 50% in Murine Leukemia L1210 cells; conditions: Mus musculus, read-out: ID50 (the source's name)
[10] = test system: L1210; assay: Inhibitory concentration required to reduce [3H1',2']dUrd incorporation into cellular DNA by 50 %; conditions: Mus musculus, read-out: ID50 (the source's name)

Row | Compound | Antiviral index [1] | IC50 [2] [µg/mL] | IC50 [3] [µg/mL] | ID50 [4] [µg/mL] | ID50 [5] [µg/mL] | ID50 [6] [µg/mL] | IC50 [7] [µg/mL] | IC50 [8] [µg/mL] | IC50 [9] [µg/mL] | IC50 [10] [µg/mL]
1 | O=c1[nH]c(=O)n([C@H]2C[C@H](O)[C@@H](CO)O2)cc1/C=C/Br [BRIVUDINE] | 3860 | 27 (≈ 81 µM) | 73 (≈ 219 µM) | 0.007 (≈ 0.021 µM) | 2 (≈ 6 µM) | >400 |  |  |  | 
2 | CC(=O)OCCOCn1cc(/C=C/Br)c(=O)[nH]c1=O |  | > 400 | > 200 | >400 | >400 |  | > 1000 | > 1000 | > 1000 | 
3 | CC(=O)OCCOCn1cnc2c(Cl)nc(Cl)nc21 | 1 | 2 (≈ 6.55 µM) | 10 (≈ 32.8 µM) | 2 (≈ 6.55 µM) | >10 |  | 412 (≈ 1350 µM) | 12 (≈ 39.3 µM) | 98 (≈ 321 µM) | 
4 | O=c1[nH]c(=O)n(COCCO)cc1I |  | > 400 | > 400 | >400 | >400 |  | > 1000 | > 1000 | > 1000 | 
5 | CN(C)c1ncnc2c1ncn2COCCO | < 0.9 | > 350 | 400 (≈ 1690 µM) | >400 | >400 |  | > 500 | > 500 | > 500 | 
6 | O=c1ccn(COCCO)c(=O)[nH]1 |  | > 400 | > 400 | >400 | >400 |  | > 1000 | > 1000 | > 1000 | 
7 | Nc1nc(=O)n(COCCO)cc1[N+](=O)[O-] |  | > 400 | > 400 | >400 | >400 |  | > 500 | 71 (≈ 308 µM) | 374 (≈ 1620 µM) | 
8 | Nc1nc(=O)ccn1COCCO |  | > 400 | > 400 | >400 | >400 |  | > 500 | > 500 | > 500 | 
9 | Nc1ccn(COCCO)c(=O)n1 | > 5 | > 400 | > 400 | 70 (≈ 378 µM) | 100 (≈ 540 µM) | >400 | > 1000 | 675 (≈ 3650 µM) | > 1000 | 
10 | Cc1nc2c(O)nc(N)nc2n1COCCO | > 800 | > 400 | > 400 | 0.5 (≈ 2.09 µM) | 0.5 (≈ 2.09 µM) | >400 | > 500 | 323 (≈ 1350 µM) | > 500 | 
11 | Nc1nc(O)c2nc(N3CCCCC3)n(COCCO)c2n1 | 3.5 | 333 (≈ 1080 µM) | 250 (≈ 811 µM) | 70 (≈ 227 µM) | 150 (≈ 486 µM) | >400 | > 500 | > 500 | > 500 | 
12 | CC(=O)OCCOCn1cnc2c(Cl)ncnc21 | 3 | 62 (≈ 229 µM) | 60 (≈ 222 µM) | 70 (≈ 259 µM) | 70 (≈ 259 µM) | >400 | 475 (≈ 1750 µM) | 44 (≈ 163 µM) | 233 (≈ 861 µM) | 
13 | Nc1nc2c(nc(Br)n2COCCO)c(=O)[nH]1 | 450 | 225 (≈ 740 µM) | 340 (≈ 1120 µM) | 0.5 (≈ 1.64 µM) | 0.5 (≈ 1.64 µM) | >400 | > 500 | 355 (≈ 1170 µM) |  | > 500
14 | CNc1nc2c(=O)[nH]c(N)nc2n1COCCO | 133 | > 400 | > 400 | 7 (≈ 27.5 µM) | 3 (≈ 11.8 µM) | >400 | > 500 | > 500 |  | > 500
15 | Nc1ncnc2c1ncn2COCCO | 2.2 | 22 (≈ 105 µM) | 49 (≈ 234 µM) | 10 (≈ 47.8 µM) | 10 (≈ 47.8 µM) | >400 | > 1000 | 19 (≈ 90.8 µM) | > 1000 | 
16 | Nc1nc2c(nc(N)n2COCCO)c(=O)[nH]1 | 667 | 200 (≈ 833 µM) | 290 (≈ 1210 µM) | 0.7 (≈ 2.91 µM) | 0.3 (≈ 1.25 µM) | >100 | 500 (≈ 2080 µM) | > 500 |  | 500 (≈ 2080 µM)
17 | O=c1[nH]c(=O)n(COCCO)cc1Br |  | > 400 | > 400 | >400 | >400 |  | > 1000 | > 1000 | > 1000 | 
18 | O=c1[nH]c(=O)n(COCCO)cc1/C=C/Br |  | > 400 | > 200 | >400 | >400 |  | > 1000 | > 1000 | > 1000 | 
19 | O=c1[nH]c(=O)n(COCCO)cc1[N+](=O)[O-] |  | > 400 | > 400 | >400 | >400 |  | > 1000 | 447 (≈ 1930 µM) | > 1000 | 
20 | CN(C)c1nc2c(=O)[nH]c(N)nc2n1COCCO | 13 | > 400 | > 400 | 30 (≈ 112 µM) | 250 (≈ 932 µM) | >400 | > 500 | > 500 |  | > 500
21 | O=c1[nH]c(=O)n(COCCO)cc1F |  | > 400 | > 400 | >400 | >400 |  | > 1000 | > 1000 | > 1000 | 
22 | O=c1[nH]c(=O)n(COCCO)cc1Cl |  | > 400 | > 400 | >400 | >400 |  | > 1000 | > 1000 | > 1000 | 
23 | O=c1cc(O)ccn1COCCO |  | > 400 | > 400 | >400 | >400 |  | > 1000 | > 1000 | > 1000 | 
24 | Nc1nc2c(nc(I)n2COCCO)c(=O)[nH]1 | 625 | ≥ 250 | ≥ 350 | 0.4 (≈ 1.14 µM) | 0.4 (≈ 1.14 µM) | >400 | > 1000 | 39 (≈ 111 µM) |  | > 1000
25 | Cc1cn(COCCO)c(=O)[nH]c1=O |  | > 400 | > 400 | >400 | >400 |  | > 1000 | > 1000 | > 1000 | 
